target: Tyrosine-protein kinase Lck (Homo sapiens, UniProt P06239); experiment: Inhibition of human activated Lck
Sequence (P06239 whole entry): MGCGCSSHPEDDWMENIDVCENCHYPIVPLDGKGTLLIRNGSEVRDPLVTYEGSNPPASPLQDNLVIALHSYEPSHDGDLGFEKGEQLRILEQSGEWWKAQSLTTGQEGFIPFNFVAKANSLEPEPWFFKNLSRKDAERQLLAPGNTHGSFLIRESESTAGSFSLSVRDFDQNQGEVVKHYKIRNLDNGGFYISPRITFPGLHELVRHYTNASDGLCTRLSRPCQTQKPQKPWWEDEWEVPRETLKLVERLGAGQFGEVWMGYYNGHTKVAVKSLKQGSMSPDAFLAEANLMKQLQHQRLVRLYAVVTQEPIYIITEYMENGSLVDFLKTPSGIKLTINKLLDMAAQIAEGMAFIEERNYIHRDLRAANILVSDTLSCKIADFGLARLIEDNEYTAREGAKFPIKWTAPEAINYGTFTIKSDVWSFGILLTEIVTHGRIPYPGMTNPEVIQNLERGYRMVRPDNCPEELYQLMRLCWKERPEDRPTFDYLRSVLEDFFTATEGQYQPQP

| IC50 | SMILES |
| --- | --- |
| > 100 µM | Cc1ccc(-c2cn(C3CCCCC3=O)nn2)cc1 (configuration not stated) |

target: T1, Proto-oncogene tyrosine-protein kinase Src (Homo sapiens, UniProt P12931); experiment: Inhibition of c-Src at 75 uM after 60 mins
T1 sequence (P12931 2-536 limits assumed): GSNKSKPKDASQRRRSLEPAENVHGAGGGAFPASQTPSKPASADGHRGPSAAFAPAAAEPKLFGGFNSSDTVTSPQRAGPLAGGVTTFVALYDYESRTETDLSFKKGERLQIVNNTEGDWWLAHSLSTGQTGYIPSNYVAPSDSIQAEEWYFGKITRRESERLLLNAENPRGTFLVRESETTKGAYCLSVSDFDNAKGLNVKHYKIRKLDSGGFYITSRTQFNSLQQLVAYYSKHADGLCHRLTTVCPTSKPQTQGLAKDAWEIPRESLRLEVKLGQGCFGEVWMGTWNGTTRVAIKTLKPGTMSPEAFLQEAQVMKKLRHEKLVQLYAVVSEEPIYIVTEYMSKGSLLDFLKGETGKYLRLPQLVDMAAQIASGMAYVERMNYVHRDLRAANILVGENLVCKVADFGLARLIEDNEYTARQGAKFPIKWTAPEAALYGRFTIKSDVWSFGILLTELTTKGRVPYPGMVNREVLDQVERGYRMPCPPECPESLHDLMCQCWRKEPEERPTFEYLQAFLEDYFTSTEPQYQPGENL

| inhibition | SMILES |
| --- | --- |
| < 10% | O=C1CCC(n2cc(-c3ccccc3)nn2)C1 (configuration not stated) |
| < 10% | O=C1CCCCC1n1cc(-c2ccsc2)nn1 (configuration not stated) |
| < 10% | CCCCc1cn(CC(=O)c2ccc(Br)cc2)nn1 |
| < 10% | O=C1CCCC1n1cc(-c2ccc(F)cc2)nn1 (configuration not stated) |
| < 10% | O=C1CCCC(n2cc(-c3ccccc3)nn2)C1 (configuration not stated) |
| < 10% | Cc1ccc(-c2cn(CC(=O)c3ccc(Br)cc3)nn2)cc1 |
| < 10% | O=C1CCCC1n1cc(-c2ccsc2)nn1 (configuration not stated) |
| < 10% | O=C1CCCCC1n1cc(-c2ccc(F)cc2)nn1 (configuration not stated) |
| < 10% | COc1ccc(-c2cn(C3CCCC3=O)nn2)cc1 (configuration not stated) |
| < 10% | O=C(Cn1cc(-c2ccccn2)nn1)c1ccccc1 |
| < 10% | COc1ccc(-c2cn(C3CCCCC3=O)nn2)cc1 (configuration not stated) |
| < 10% | O=C(Cn1cc(-c2ccc(F)cc2)nn1)c1ccc(Br)cc1 |
| < 10% | COc1ccc(-c2cn(CC(=O)c3ccc(Cl)cc3)nn2)cc1 |
| < 10% | O=C(Cn1cc(-c2ccc(F)cc2)nn1)c1ccc(Cl)cc1 |
| < 10% | CCCCc1cn(CC(=O)c2ccccc2)nn1 |

target: T1, Proto-oncogene tyrosine-protein kinase Src; experiment: Inhibition of c-Src after 60 mins

| IC50 | SMILES |
| --- | --- |
| > 150 µM | CCNC(=O)Cn1cc(-c2ccccc2)nn1 |
| 72.8 µM | COc1ccc(C(=O)Cn2cc(-c3cccc(C)c3)nn2)cc1 |
| 89.5 µM | O=C(Cn1cc(-c2ccccc2)nn1)c1ccc(-c2cc3ccccc3oc2=O)cc1 |
| > 150 µM | Cc1ccc(-c2cn(CC(=O)c3cc4ccccc4oc3=O)nn2)cc1 |
| 43.2 µM | O=C1CCCCC1n1cc(-c2ccccc2)nn1 (configuration not stated) |
| 82.3 µM | Cc1ccc(C(=O)Cn2cc(-c3ccc(F)c(C)c3)nn2)cc1 |
| 62.1 µM | Cc1ccc(-c2cn(C3CCCC3=O)nn2)cc1 (configuration not stated) |
| 41.6 µM | Cc1ccc(-c2cn(CC(=O)c3ccccc3)nn2)cc1 |
| > 150 µM | CC(=O)Cn1cc(-c2ccc(C)cc2)nn1 |
| 33.9 µM | Cc1ccc(-c2cn(C3CCCCC3=O)nn2)cc1 (configuration not stated) |
| 81 µM | Cc1cc(-c2cn(CC(=O)c3ccccc3)nn2)ccc1F |
| > 150 µM | CC(=O)Cn1cc(-c2ccccc2)nn1 |
| 32.5 µM | O=C(Cn1cc(-c2ccccc2)nn1)c1cccs1 |
| > 100 µM | O=C(Cn1cc(CCCCCl)nn1)c1ccc(Br)cc1 |
| 109 µM | Cc1ccc(-c2cn(CC(=O)c3ccc(Cl)cc3)nn2)cc1 |
| 66.1 µM | Cc1ccc(-c2cn(C3CCCCCC3=O)nn2)cc1 (configuration not stated) |
| > 100 µM | O=C(/C=C/c1ccccc1)Cn1cc(-c2ccccc2)nn1 |
| > 100 µM | COC(=O)Cn1cc(-c2ccccc2)nn1 |
| > 150 µM | O=C(Cn1cc(-c2ccsc2)nn1)c1ccc(Cl)cc1 |
| 49.8 µM | Cc1ccc(C(=O)Cn2cc(-c3ccc(C)cc3)nn2)cc1 |
| > 100 µM | O=C(Cn1cc(-c2ccccc2)nn1)c1ccccc1 |
| 106 µM | O=C1CCCC1n1cc(-c2ccccc2)nn1 (configuration not stated) |
| > 100 µM | COc1ccc(C(=O)Cn2cc(-c3ccccc3)nn2)cc1 |
| 139 µM | O=C(Cn1cc(-c2ccccc2)nn1)c1ccc(Cl)cc1 |

target: Tyrosine-protein kinase CSK (Homo sapiens) (UniProt P41240); experiment: Inhibition of human Cck

| IC50 | SMILES |
| --- | --- |
| > 100 µM | Cc1ccc(-c2cn(C3CCCCC3=O)nn2)cc1 (configuration not stated) |

target: Epidermal growth factor receptor (Homo sapiens, UniProt P00533); experiment: Inhibition of human EGFR
Sequence (P00533 whole entry): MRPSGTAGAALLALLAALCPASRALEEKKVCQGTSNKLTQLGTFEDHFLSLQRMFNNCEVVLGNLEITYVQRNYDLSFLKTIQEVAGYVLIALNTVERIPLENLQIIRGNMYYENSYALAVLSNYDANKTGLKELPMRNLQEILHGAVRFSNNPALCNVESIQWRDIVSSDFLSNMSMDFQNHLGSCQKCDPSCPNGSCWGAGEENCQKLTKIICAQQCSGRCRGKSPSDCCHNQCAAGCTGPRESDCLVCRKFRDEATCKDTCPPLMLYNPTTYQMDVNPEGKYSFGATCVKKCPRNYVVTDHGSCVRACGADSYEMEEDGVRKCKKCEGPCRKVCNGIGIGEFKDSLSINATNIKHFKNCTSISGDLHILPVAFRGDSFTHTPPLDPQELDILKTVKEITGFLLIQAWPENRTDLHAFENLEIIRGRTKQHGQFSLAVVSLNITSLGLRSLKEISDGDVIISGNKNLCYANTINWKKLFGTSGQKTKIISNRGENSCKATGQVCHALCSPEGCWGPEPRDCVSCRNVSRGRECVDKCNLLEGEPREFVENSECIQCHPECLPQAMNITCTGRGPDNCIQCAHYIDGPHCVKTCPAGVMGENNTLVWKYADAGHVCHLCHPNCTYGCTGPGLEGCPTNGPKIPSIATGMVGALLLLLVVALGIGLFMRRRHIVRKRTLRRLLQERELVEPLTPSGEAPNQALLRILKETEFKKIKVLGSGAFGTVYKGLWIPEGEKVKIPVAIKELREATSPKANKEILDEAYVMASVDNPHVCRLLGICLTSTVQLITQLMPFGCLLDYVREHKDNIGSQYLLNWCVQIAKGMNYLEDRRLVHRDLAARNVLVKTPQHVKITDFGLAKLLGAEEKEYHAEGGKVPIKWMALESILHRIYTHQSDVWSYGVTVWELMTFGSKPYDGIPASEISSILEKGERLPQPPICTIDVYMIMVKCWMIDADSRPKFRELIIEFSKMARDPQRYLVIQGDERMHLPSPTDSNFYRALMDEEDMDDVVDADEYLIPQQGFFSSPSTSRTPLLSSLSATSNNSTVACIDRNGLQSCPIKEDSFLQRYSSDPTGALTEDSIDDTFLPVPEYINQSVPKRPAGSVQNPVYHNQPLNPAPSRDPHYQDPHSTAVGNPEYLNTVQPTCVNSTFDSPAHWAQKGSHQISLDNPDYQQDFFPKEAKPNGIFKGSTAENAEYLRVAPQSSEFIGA

| IC50 | SMILES |
| --- | --- |
| > 100 µM | Cc1ccc(-c2cn(C3CCCCC3=O)nn2)cc1 (configuration not stated) |

Reference: ChEMBL document CHEMBL1641405, “Click chemistry inspired one-pot synthesis of 1,4-disubstituted 1,2,3-triazoles and their Src kinase inhibitory activity” (Bioorg Med Chem Lett, 2011)
